Test results as given in the CheMixHub ionic liquid set.
Several values for one entry are separate records, joined by “and”; a condition that tells them apart may be missing. Equal entries are not always repeated. ± gives the uncertainty stated by the source.

Assay: xn = mol fraction of the nth substance listed

CC(=O)[O-].CCCC[N+]1(C)CCCC1 + O
298.15 K, 101.3 kPa, frequency 100 MHz
Conditions	electrical conductivity [S/m]
x1 = 0.017	2.62 ± 0.26
x1 = 0.163	0.985 ± 0.099

CCCCCCCCCCCCCCCC[n+]1ccccc1.O=C([O-])C(O)c1ccccc1 + O
electrical conductivity [S/m], 101 kPa
Conditions	293.15 K	298.15 K	303.15 K	308.15 K	313.15 K
x1 = 1.08e-06	0.00061 ± 0.00098	0.00068 ± 0.0011	0.00076 ± 0.0012	0.00083 ± 0.0013	0.0009 ± 0.0015
x1 = 1.98e-06	0.001 ± 0.001	0.0012 ± 0.0012	0.0013 ± 0.0013	0.0014 ± 0.0014	0.0016 ± 0.0015
x1 = 2.88e-06	0.00147 ± 0.00099	0.0016 ± 0.0011	0.0018 ± 0.0012	0.002 ± 0.0014	0.0022 ± 0.0015
x1 = 3.96e-06	0.0019 ± 0.001	0.0022 ± 0.0011	0.0024 ± 0.0013	0.0026 ± 0.0014	0.0029 ± 0.0015
x1 = 4.69e-06	0.0023 ± 0.001	0.0026 ± 0.0011	0.0029 ± 0.0013	0.0031 ± 0.0014	0.0035 ± 0.0015
x1 = 5.95e-06	0.00281 ± 0.00098	0.0032 ± 0.0011	0.0035 ± 0.0012	0.0038 ± 0.0013	0.0042 ± 0.0015
x1 = 7.21e-06	0.00341 ± 0.00095	0.0038 ± 0.0011	0.0042 ± 0.0012	0.0046 ± 0.0013	0.0051 ± 0.0015
x1 = 8.83e-06	0.00406 ± 0.00092	0.0046 ± 0.001	0.005 ± 0.0011	0.0055 ± 0.0013	0.006 ± 0.0014
x1 = 1.045e-05	0.00469 ± 0.00089	0.0053 ± 0.001	0.0058 ± 0.0011	0.0065 ± 0.0012	0.0071 ± 0.0014
x1 = 1.207e-05	0.00516 ± 0.00088	0.0058 ± 0.001	0.0064 ± 0.0011	0.0071 ± 0.0012	0.0079 ± 0.0014
x1 = 1.351e-05	0.00562 ± 0.00086	0.00631 ± 0.00097	0.007 ± 0.0011	0.0077 ± 0.0012	0.0085 ± 0.0013
x1 = 1.478e-05	0.00603 ± 0.0009	0.0068 ± 0.001	0.0075 ± 0.0011	0.0083 ± 0.0012	0.0092 ± 0.0013
x1 = 1.622e-05	0.00644 ± 0.00092	0.0072 ± 0.001	0.008 ± 0.0011	0.0089 ± 0.0013	0.0098 ± 0.0014
x1 = 1.766e-05	0.00687 ± 0.00093	0.0077 ± 0.001	0.0085 ± 0.0012	0.0094 ± 0.0013	0.0104 ± 0.0014

CCCCCCCCCCCC[N+]1(C)CCCC1.O=C([O-])c1ccccc1O + O
100 kPa
Conditions	electrical conductivity [S/m]
298.15 K, x1 = 3.592e-05	0.00892 ± 0.00049
298.15 K, x1 = 3.961e-05	0.00933 ± 0.00052
298.15 K, x1 = 4.883e-05	0.0111 ± 0.00061
308.15 K, x1 = 4.883e-05	0.0151 ± 0.00083
318.15 K, x1 = 3.592e-05	0.0144 ± 0.00079
318.15 K, x1 = 5.39e-05	0.02 ± 0.0011
318.15 K, x1 = 5.759e-05	0.0215 ± 0.0012
328.15 K, x1 = 5.39e-05	0.0254 ± 0.0014
328.15 K, x1 = 5.759e-05	0.0262 ± 0.0014

CCCCCC[n+]1ccn(C)c1.F[B-](F)(F)F + O
Conditions	viscosity [mPa·s]
298.15 K, 100 kPa, x1 = 0.0153	2.79 ± 0.14

CCOCC[n+]1ccn(C)c1.C[C@@H](O)[C@H](N)C(=O)[O-] + O
100 kPa
Conditions	viscosity
298.15 K, x1 = 0.619	1040 ± 110 mPa·s
313.15 K, x1 = 0.3647	245 ± 13 mPa·s
323.15 K, x1 = 0.3158	118.5 ± 3.6 mPa·s
323.15 K, x1 = 0.3647	125.5 ± 4.1 mPa·s
328.15 K, x1 = 0.3158	96.1 ± 2.3 mPa·s and 99.5 ± 2.5 mPa·s
328.15 K, x1 = 0.5081	106 ± 2.9 mPa·s
328.15 K, x1 = 1	115.4 ± 3.4 mPa·s
